Drawing on PubChem BioAssay AID248 (DTP/NCI, 2004), this text covers T/C for nine molecules.

SMILES strings stand for the structures. Several values for one entry are separate records, joined by “and”; a condition that tells them apart may be missing. Equal entries are not always repeated. Toxic doses and inconclusive results are not listed.

For this test, the system named is L1210 leukemia ip in BDF1 mice, survival T/C. Description: NCI In Vivo Anticancer Drug Screen. Data for tumor model L1210 Leukemia (intraperitoneal) in B6D2F1 (BDF1) mice. As to conditions: higher = longer survival. Summed up:
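Survival endpoint. Drug-treated group vs vehicle group, expressed as T divided by C. Tumor passaged by transplantation.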

Where [1] appears, read: endpoint: mean survival time, dose: 100.0 mg/kg/injection, schedule: Q01DX009 (ip), vehicle: Klucel (hydroxypropylcellulose) (HPC).
Where [2] appears, read: endpoint: mean survival time, dose: 200.0 mg/kg/injection, schedule: Q01DX009 (ip), vehicle: Klucel (hydroxypropylcellulose) (HPC).
Where [3] appears, read: endpoint: mean survival time, dose: 400.0 mg/kg/injection, schedule: Q04DX002 (ip), vehicle: Klucel (hydroxypropylcellulose) (HPC).
The mark [4] stands for this setting: endpoint: mean survival time, dose: 12.5 mg/kg/injection, schedule: Q01DX009 (ip), vehicle: saline with Tween-80.
[5] abbreviates: endpoint: mean survival time, dose: 100.0 mg/kg/injection, schedule: Q01DX009 (ip), vehicle: saline.
[6] abbreviates: endpoint: mean survival time, dose: 200.0 mg/kg/injection, schedule: Q01DX009 (ip), vehicle: saline.
[7] abbreviates: endpoint: mean survival time, dose: 400.0 mg/kg/injection, schedule: Q01DX009 (ip), vehicle: saline.

On to `O=NN1CCCNCC1`, for which the T/C reads like this: (endpoint: mean survival time, dose: 25.0 mg/kg/injection, schedule: Q01DX009 (ip), vehicle: water) 104 % of control; (endpoint: mean survival time, dose: 50.0 mg/kg/injection, schedule: Q01DX009 (ip), vehicle: water) 111 % of control; (endpoint: mean survival time, dose: 100.0 mg/kg/injection, schedule: Q01DX009 (ip), vehicle: water) 106 % of control; (endpoint: mean survival time, dose: 200.0 mg/kg/injection, schedule: Q01DX009 (ip), vehicle: water) 101 % of control; (endpoint: mean survival time, dose: 400.0 mg/kg/injection, schedule: Q01DX009 (ip), vehicle: water) 112 % of control.

For `CCCCCCCCCCCCCCCCC(C(=O)O)C(O)(CC(=O)O)C(=O)O` (stereo not drawn), the T/C runs as follows: (endpoint: mean survival time, dose: 19.0 mg/kg/injection, schedule: Q01DX Z (ip), vehicle: carboxymethylcellulose (CMC)) 92 % of control; (endpoint: mean survival time, dose: 37.5 mg/kg/injection, schedule: Q01DX Z (ip), vehicle: carboxymethylcellulose (CMC)) 92 % of control; (endpoint: mean survival time, dose: 75.0 mg/kg/injection, schedule: Q01DX Z (ip), vehicle: carboxymethylcellulose (CMC)) 86 % of control and 87 % of control; (endpoint: mean survival time, dose: 150.0 mg/kg/injection, schedule: Q01DX Z (ip), vehicle: carboxymethylcellulose (CMC)) 88 % of control.

In the case of `N=c1nc2n(cc1F)[C@@H]1O[C@H](CO)[C@@H](O)[C@@H]1O2`, the T/C by setting is: under setting [1], 187 % of control; under setting [2], 177 % of control; (endpoint: mean survival time, dose: 400.0 mg/kg/injection, schedule: Q01DX001 (ip), vehicle: Klucel (hydroxypropylcellulose) (HPC)) 113 % of control; under setting [3], 165 % of control and 173 % of control; (endpoint: mean survival time, dose: 600.0 mg/kg/injection, schedule: Q04DX002 (ip), vehicle: Klucel (hydroxypropylcellulose) (HPC)) 180 % of control; (endpoint: mean survival time, dose: 800.0 mg/kg/injection, schedule: Q01DX001 (ip), vehicle: Klucel (hydroxypropylcellulose) (HPC)) 116 % of control. Besides, the T/C was 123 % of control (endpoint: mean survival time, dose: 2000.0 mg/kg/injection, schedule: Q01DX001 (ip), vehicle: Klucel (hydroxypropylcellulose) (HPC)); 152 % of control (endpoint: mean survival time, dose: 2000.0 mg/kg/injection, schedule: Q01DX001 (ip), vehicle: saline); 255 % of control (endpoint: median survival time, dose: 25.0 mg/kg/injection, schedule: Q03HX024 (ip), vehicle: water); 175 % of control (endpoint: median survival time, dose: 50.0 mg/kg/injection, schedule: Q01DX009 (ip), vehicle: steriod suspending solution); 610 % of control (endpoint: median survival time, dose: 50.0 mg/kg/injection, schedule: Q03HX024 (ip), vehicle: water); 180 % of control (endpoint: median survival time, dose: 100.0 mg/kg/injection, schedule: Q01DX009 (ip), vehicle: steriod suspending solution). For the same molecule, the T/C reads like this: (endpoint: median survival time, dose: 100.0 mg/kg/injection, schedule: Q01DX009 (ip), vehicle: water) 190 % of control; (endpoint: median survival time, dose: 100.0 mg/kg/injection, schedule: Q03HX024 (ip), vehicle: water) 390 % of control; (endpoint: median survival time, dose: 200.0 mg/kg/injection, schedule: Q01DX009 (ip), vehicle: steriod suspending solution) 205 % of control; (endpoint: median survival time, dose: 200.0 mg/kg/injection, schedule: Q01DX009 (ip), vehicle: water) 240 % of control; (endpoint: median survival time, dose: 400.0 mg/kg/injection, schedule: Q01DX001 (oral), vehicle: water) 120 % of control; (endpoint: median survival time, dose: 400.0 mg/kg/injection, schedule: Q01DX009 (ip), vehicle: steriod suspending solution) 340 % of control. Further, the T/C is, setting by setting: (endpoint: median survival time, dose: 400.0 mg/kg/injection, schedule: Q01DX009 (ip), vehicle: water) 450 % of control; (endpoint: median survival time, dose: 800.0 mg/kg/injection, schedule: Q01DX001 (ip), vehicle: water) 150 % of control.

As to `O=C(OCCCCOC(=O)c1cccc([N+](=O)[O-])c1)c1cccc([N+](=O)[O-])c1`, the T/C by setting is: (endpoint: mean survival time, dose: 3.12 mg/kg/injection, schedule: Q01DX009 (ip), vehicle: saline with Tween-80) 95 % of control; (endpoint: mean survival time, dose: 6.25 mg/kg/injection, schedule: Q01DX009 (ip), vehicle: saline with Tween-80) 100 % of control; under setting [4], 97 % of control; (endpoint: mean survival time, dose: 100.0 mg/kg/injection, schedule: Q01DX001 (ip), vehicle: other) 102 % of control; (endpoint: mean survival time, dose: 200.0 mg/kg/injection, schedule: Q01DX001 (ip), vehicle: other) 95 % of control; (endpoint: mean survival time, dose: 400.0 mg/kg/injection, schedule: Q01DX001 (ip), vehicle: other) 93 % of control.

As to `Nc1ccc(CS(=O)(=O)O)cc1`, the T/C by setting is: under setting [5], 112 % of control; under setting [6], 101 % of control; under setting [7], 101 % of control.

Take `CC(=O)[O][Hg][c]1c(N)c(Cl)cc(C)c1F`: the T/C was 101 % of control (endpoint: mean survival time, dose: 10.0 mg/kg/injection, schedule: Q01DX001 (ip), vehicle: Klucel (hydroxypropylcellulose) (HPC)) and 86 % of control (endpoint: mean survival time, dose: 20.0 mg/kg/injection, schedule: Q01DX001 (ip), vehicle: Klucel (hydroxypropylcellulose) (HPC)).

For `NC(CC(=O)O)C(=O)O` (stereo not drawn), the T/C (endpoint: mean survival time, dose: 100.0 mg/kg/injection, schedule: Q01DX001 (ip), vehicle: carboxymethylcellulose (CMC)) was 94 % of control; the T/C (endpoint: mean survival time, dose: 100.0 mg/kg/injection, schedule: Q01DX001 (ip), vehicle: saline) is 102 % of control and 95 % of control; the T/C under setting [5] was 97 % of control; the T/C (endpoint: mean survival time, dose: 100.0 mg/kg/injection, schedule: Q04DX002 (ip), vehicle: Klucel (hydroxypropylcellulose) (HPC)) is 98 % of control; the T/C (endpoint: mean survival time, dose: 200.0 mg/kg/injection, schedule: Q01DX001 (ip), vehicle: carboxymethylcellulose (CMC)) was 89 % of control; the T/C (endpoint: mean survival time, dose: 200.0 mg/kg/injection, schedule: Q01DX001 (ip), vehicle: saline) was 96 % of control and 93 % of control. The T/C under setting [6] is 100 % of control; the T/C (endpoint: mean survival time, dose: 200.0 mg/kg/injection, schedule: Q04DX002 (ip), vehicle: Klucel (hydroxypropylcellulose) (HPC)) is 98 % of control; the T/C (endpoint: mean survival time, dose: 400.0 mg/kg/injection, schedule: Q01DX001 (ip), vehicle: carboxymethylcellulose (CMC)) was 92 % of control; the T/C (endpoint: mean survival time, dose: 400.0 mg/kg/injection, schedule: Q01DX001 (ip), vehicle: saline) was 102 % of control and 90 % of control; the T/C under setting [7] is 97 % of control; the T/C (endpoint: mean survival time, dose: 400.0 mg/kg/injection, schedule: Q01DX030 (sc), vehicle: other) was 97 % of control. Besides, the T/C runs as follows: under setting [3], 95 % of control; (endpoint: mean survival time, dose: 800.0 mg/kg/injection, schedule: Q01DX030 (sc), vehicle: other) 96 % of control.

For `C#CCOCC1CN(c2ccccc2)C(=O)O1` (stereo not drawn), the T/C reads like this: under setting [1], 100 % of control; (endpoint: mean survival time, dose: 100.0 mg/kg/injection, schedule: Q04DX003 (ip), vehicle: Klucel (hydroxypropylcellulose) (HPC)) 101 % of control; under setting [2], 100 % of control; (endpoint: mean survival time, dose: 200.0 mg/kg/injection, schedule: Q04DX003 (ip), vehicle: Klucel (hydroxypropylcellulose) (HPC)) 92 % of control; (endpoint: mean survival time, dose: 400.0 mg/kg/injection, schedule: Q01DX009 (ip), vehicle: Klucel (hydroxypropylcellulose) (HPC)) 91 % of control; (endpoint: mean survival time, dose: 400.0 mg/kg/injection, schedule: Q04DX003 (ip), vehicle: Klucel (hydroxypropylcellulose) (HPC)) 103 % of control.

As to `c1cc2c(c(NC3=NCCN3)c1)CCCC2`, the T/C runs as follows: under setting [4], 98 % of control; (endpoint: mean survival time, dose: 25.0 mg/kg/injection, schedule: Q01DX009 (ip), vehicle: saline with Tween-80) 93 % of control; (endpoint: mean survival time, dose: 50.0 mg/kg/injection, schedule: Q01DX009 (ip), vehicle: saline with Tween-80) 95 % of control.
